Several values for one entry are separate records, joined by “and”; a condition that tells them apart may be missing. Identical values can stand only once. Like-named read-outs stand apart in the source and are kept apart here.
Tests used:
[1] = system: Ba/F3-EGFR-insSVD; test: Ba/F3 cell survival assay, EGFR-insSVD; format: cell-based; conditions: Mus musculus, BaF3, 48 h, read-out: BA/F3 (insSVD) IC50, cell viability, Cell Titer-Glo, 48 h, with 10 ng/mL EGF, without IL-3
Procedure: (§1) 293T cells from ATCC were transfected with pBABEpuro expression constructs for WT EGFR or EGFR-insSVD and pCL-Eco packaging vector using Fugene-6 transfection reagent from Promega. Plates were incubated at 37° C. for 48 h. Retrovirus was harvested by filtering the media supernatant through a 0.45 μm filter.
(§2) Ba/F3 cells purchased from DSMZ were grown in RPMI+10% FBS+10 ng/mL IL-3 and infected with filtered retroviral supernatant at a 1:2 dilution. Polybrene was added to a concentration of 8 μg/mL, plates were spun for 90 min, and incubated overnight at 37° C. 2 μg/mL puromycin was added to the infected cells 24 h after infection and cells were continually grown in the presence of puromycin and 10 ng/mL IL-3. Following stably expressing Ba/F3 cell lines were generated: Ba/F3-EGFR-WT, Ba/F3-EGFR-insSVD, (Ba/F3-vector-control).
For cell survival assays, Ba/F3 cells were grown to a density of 1-2 million cells per mL, spun down and resuspended in media without IL-3, and replated at a concentration 200,000-500,000 cells per mL. The cells ectopically expressing WT EGFR or EGFR-insSVD were plated with 10 ng/mL Millipore Culture grade EGF. The cells ectopically expressing pBABEpuro empty vector were plated with 10 ng/mL IL-3.
2 days later, cells were plated in 50 μL in a 384 well plate at a concentration of 4000 cells per well for cells assayed in the absence of IL-3 and 2000 cells per well for cells assayed in the presence of IL-3. 100 nL of compound was added to each well using a 100 nL pin head, and plates were incubated at 37° C. for 48 h.
Cell viability was measured by adding 20 μL of Cell Titer-Glo Luminescent Cell Viability Reagent diluted 1:3 in PBS. Plates were sealed with Perkin Elmer Top-Seal, inverted several times to mix, and immediately centrifuged at 1000 rpm for 2 min. Plates were incubated in low light conditions for 8-10 min and luminescence was measured.

[2] = molecular target: human Bub1 (Homo sapiens (Human), UniProt O43683); test: Bub1 high ATP kinase assay (TR-FRET); format: biochemical
Chain of human Bub1 (O43683 704-1085): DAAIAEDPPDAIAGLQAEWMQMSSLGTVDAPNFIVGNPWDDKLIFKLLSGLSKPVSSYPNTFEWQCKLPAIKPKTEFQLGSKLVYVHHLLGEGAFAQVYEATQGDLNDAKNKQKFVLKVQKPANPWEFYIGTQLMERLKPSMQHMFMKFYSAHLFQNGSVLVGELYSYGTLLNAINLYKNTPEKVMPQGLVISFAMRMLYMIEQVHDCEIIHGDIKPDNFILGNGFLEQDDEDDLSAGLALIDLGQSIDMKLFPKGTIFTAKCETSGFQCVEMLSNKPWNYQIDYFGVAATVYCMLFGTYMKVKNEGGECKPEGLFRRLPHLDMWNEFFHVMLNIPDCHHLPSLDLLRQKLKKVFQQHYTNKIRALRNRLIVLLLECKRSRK
From the text: Bub1-inhibitory activity of compounds of the present invention at a high ATP concentration was quantified employing the Bub1 TR-FRET high ATP kinase assay as described in the following paragraphs.
N-terminally His6-tagged recombinant catalytic domain of human Bub1 (amino acids 704-1085), expressed in insect cells (Hi5) and purified by Ni-NTA affinity chromatography and subsequent size exclusion chromatography, was used as enzyme.

[3] = system: Ba/F3-EGFR-WT; test: Ba/F3 cell survival assay, WT EGFR; format: cell-based
Procedure: as §1, §2
The cells ectopically expressing WT EGFR or EGFR-insSVD were plated with 10 ng/mL Millipore Culture grade EGF. The cells ectopically expressing pBABEpuro empty vector were plated with 10 ng/mL IL-3.
100 nL of compound was added to each well using a 100 nL pin head, and plates were incubated at 37° C. for 48 h.
Cell viability was measured by adding 20 μL of Cell Titer-Glo Luminescent Cell Viability Reagent diluted 1:3 in PBS. Plates were sealed with Perkin Elmer Top-Seal, inverted several times to mix, and immediately centrifuged at 1000 rpm for 2 min.

[4] = read-out: Bub1 high ATP (2 mM) IC50, 2 mM ATP
[5] = Mus musculus, BaF3, 48 h, read-out: BA/F3 (wild type) IC50, cell viability, Cell Titer-Glo, 48 h, with 10 ng/mL EGF, without IL-3
[6] = read-out: BA/F3 (wild type) IC50, cell viability, Cell Titer-Glo, 48 h, with 10 ng/mL EGF, without IL-3
[7] = Bub1 high ATP (2 mM) IC50, 2 mM ATP

Question: `COc1c(F)cccc1Nc1c(-c2ccncc2OCC2CCO2)[nH]c2c1C(=O)NCC2` (racemic) [Example 4, 3-(3-fluoro-2-methoxyanilino)-2-{3-[(oxetan-2-yl)methoxy]pyridin-4-yl}-1,5,6,7-tetrahydro-4H-pyrrolo[3,2-c]pyridin-4-one] was tested. Which IC50 [1] did it give?
Answer: 59.3 nM

Question: What about the IC50 [2, 4] of the same compound?
Answer: 17400 nM

Question: And the IC50 [3, 5]?
Answer: 939 nM

Question: With `Cc1c(Cl)cccc1Nc1c(-c2ccncc2OCC2CCO2)[nH]c2c1C(=O)NCC2` (racemic) [Example 7, 3-(3-chloro-2-methylanilino)-2-{3-[(oxetan-2-yl)methoxy]pyridin-4-yl}-1,5,6,7-tetrahydro-4H-pyrrolo[3,2-c]pyridin-4-one] as the compound, how does the IC50 [1] read?
Answer: 48.2 nM

Question: And the IC50 [2, 4]?
Answer: 2630 nM

Question: What about the IC50 [3, 5] of the same compound?
Answer: 820 nM

Question: `O=C1NCCc2[nH]c(-c3ccncc3OCC3CCO3)c(Nc3cccc(Cl)c3Cl)c21` (racemic) [Example 10, 3-(2,3-dichloroanilino)-2-{3-[(oxetan-2-yl)methoxy]pyridin-4-yl}-1,5,6,7-tetrahydro-4H-pyrrolo[3,2-c]pyridin-4-one] was tested. Which IC50 [1] did it give?
Answer: 65.9 nM

Question: And the IC50 [2, 4]?
Answer: 13800 nM

Question: What about the IC50 [3, 5] of the same compound?
Answer: 1040 nM

Question: `COc1c(Nc2c(-c3ccncc3OCC3CCO3)[nH]c3c2C(=O)NCC3)ccc(F)c1Cl` (racemic) [Example 13, 3-(3-chloro-4-fluoro-2-methoxyanilino)-2-{3-[(oxetan-2-yl)methoxy]pyridin-4-yl}-1,5,6,7-tetrahydro-4H-pyrrolo[3,2-c]pyridin-4-one] was tested. Which IC50 [1] did it give?
Answer: 348 nM

Question: And the IC50 [2, 4]?
Answer: > 20000 nM

Question: What about the IC50 [3, 5] of the same compound?
Answer: 2300 nM

Question: Which IC50 [1] does the source give for `COc1c(F)cccc1Nc1c(-c2ccncc2OCC2(C)CCO2)[nH]c2c1C(=O)NCC2` (racemic) [Example 19, 3-(3-fluoro-2-methoxyanilino)-2-{3-[(2-methyloxetan-2-yl)methoxy]pyridin-4-yl}-1,5,6,7-tetrahydro-4H-pyrrolo[3,2-c]pyridin-4-one] here?
Answer: 66.7 nM

Question: And the IC50 [2, 4]?
Answer: 13700 nM and > 20000 nM

Question: What about the IC50 [3, 5] of the same compound?
Answer: 2060 nM

Question: What does the source list for `COc1c(Cl)cccc1Nc1c(-c2ccncc2OCCC2CCO2)[nH]c2c1C(=O)NCC2` (racemic) [Example 24, 3-(3-chloro-2-methoxyanilino)-2-{3-[2-(oxetan-2-yl)ethoxy]pyridin-4-yl}-1,5,6,7-tetrahydro-4H-pyrrolo[3,2-c]pyridin-4-one]?
Answer: IC50 [1]: 17.5 nM; IC50 [2, 4]: 2700 nM; IC50 [3, 5]: 636 nM

Question: What does the source list for `COc1c(Br)cccc1Nc1c(-c2ccncc2OCC2CCO2)[nH]c2c1C(=O)NCC2` (racemic) [Example 33, 3-(3-bromo-2-methoxyanilino)-2-{3-[(oxetan-2-yl)methoxy]pyridin-4-yl}-1,5,6,7-tetrahydro-4H-pyrrolo[3,2-c]pyridin-4-one]?
Answer: IC50 [1]: 32.8 nM; IC50 [2, 4]: 8060 nM; IC50 [3, 5]: 1120 nM

Question: For `Cc1cccc(Nc2c(-c3ccncc3OCC3CCO3)[nH]c3c2C(=O)NCC3)c1Cl` (racemic) [Example 37, 3-(2-chloro-3-methylanilino)-2-{3-[(oxetan-2-yl)methoxy]pyridin-4-yl}-1,5,6,7-tetrahydro-4H-pyrrolo[3,2-c]pyridin-4-one], which IC50 [1] is on record?
Answer: 105 nM

Question: What about the IC50 [2, 4] of the same compound?
Answer: 11700 nM

Question: And the IC50 [3, 5]?
Answer: 942 nM

Question: Which results are given for `Cc1c(Cl)cc(F)cc1Nc1c(-c2ccncc2OCC2CCO2)[nH]c2c1C(=O)NCC2` (racemic) [Example 40, 3-(3-chloro-5-fluoro-2-methylanilino)-2-{3-[(oxetan-2-yl)methoxy]pyridin-4-yl}-1,5,6,7-tetrahydro-4H-pyrrolo[3,2-c]pyridin-4-one]?
Answer: IC50 [1]: 115 nM; IC50 [2, 4]: 10500 nM; IC50 [3, 5]: 2980 nM

Question: How did the IC50 [1] turn out when `COc1c(F)cccc1Nc1c(-c2ccncc2OCCC2CCO2)[nH]c2c1C(=O)NCC2` (racemic) [Example 43, 3-(3-fluoro-2-methoxyanilino)-2-{3-[2-(oxetan-2-yl)ethoxy]pyridin-4-yl}-1,5,6,7-tetrahydro-4H-pyrrolo[3,2-c]pyridin-4-one] was run?
Answer: 11.5 nM

Question: And the IC50 [2, 4]?
Answer: 3500 nM

Question: And the IC50 [3, 5]?
Answer: 262 nM

Question: Which IC50 [1] does the source give for `CC1(C)COC1COc1cnccc1-c1[nH]c2c(c1Nc1cccc(Cl)c1OC(F)F)C(=O)NCC2` (racemic) [Example 71, 3-[3-chloro-2-(difluoromethoxy)anilino]-2-(3-{[3,3-dimethyloxetan-2-yl]methoxy}pyridin-4-yl)-1,5,6,7-tetrahydro-4H-pyrrolo[3,2-c]pyridin-4-one] here?
Answer: 122 nM

Question: And the IC50 [2, 4]?
Answer: > 20000 nM

Question: How did the IC50 [2, 4] turn out when `COc1c(Cl)cc(F)cc1Nc1c(-c2ccncc2OCC2CCO2)[nH]c2c1C(=O)NCC2` (single isomer, unassigned) [Example 67, 3-(3-chloro-5-fluoro-2-methoxyanilino)-2-(3-{[oxetan-2-yl]methoxy}pyridin-4-yl)-1,5,6,7-tetrahydro-4H-pyrrolo[3,2-c]pyridin-4-one] was run?
Answer: > 20000 nM

Question: What about the IC50 [3, 6] of the same compound?
Answer: 5680 nM

Question: What does the source list for `CC1(COc2cnccc2-c2[nH]c3c(c2Nc2cccc(Cl)c2OC(F)F)C(=O)NCC3)CCO1` (single isomer, unassigned) [Example 75, 3-[3-chloro-2-(difluoromethoxy)anilino]-2-(3-{[2-methyloxetan-2-yl]methoxy}pyridin-4-yl)-1,5,6,7-tetrahydro-4H-pyrrolo[3,2-c]pyridin-4-one]?
Answer: IC50 [1]: 305 nM; IC50 [2, 7]: > 20000 nM

Question: Which results are given for `COc1c(F)cccc1Nc1c(-c2ccncc2OCC2(C)CCO2)[nH]c2c1C(=O)NCC2` (single isomer, unassigned; (-)) [Example 20, (−)-3-(3-fluoro-2-methoxyanilino)-2-{3-[(2-methyloxetan-2-yl)methoxy]pyridin-4-yl}-1,5,6,7-tetrahydro-4H-pyrrolo[3,2-c]pyridin-4-one]?
Answer: IC50 [2, 7]: 14500 nM; IC50 [2, 4]: 11800 nM and > 20000 nM

Question: Which IC50 [2, 4] does the source give for `COc1c(F)cccc1Nc1c(-c2ccncc2OCC2OCC2(C)C)[nH]c2c1C(=O)NCC2` (single isomer, unassigned; (-)) [Example 53, (−)-2-{3-[(3,3-dimethyloxetan-2-yl)methoxy]pyridin-4-yl}-3-(3-fluoro-2-methoxyanilino)-1,5,6,7-tetrahydro-4H-pyrrolo[3,2-c]pyridin-4-one] here?
Answer: > 20000 nM

Question: What about the IC50 [3, 6] of the same compound?
Answer: 1130 nM

Question: With `COc1c(Cl)cccc1Nc1c(-c2ccncc2OCC2CCO2)[nH]c2c1C(=O)NCC2` (stereo not drawn) [Example 1, 3-(3-chlor-2-methoxyanilino)-2-[3-(oxetan-2-ylmethoxy)pyridin-4-yl]-1,5,6,7-tetrahydro-4H-pyrrolo[3,2-c]pyridin-4-on] as the compound, how does the IC50 [1] read?
Answer: 25.1 nM

Question: And the IC50 [3, 5]?
Answer: 789 nM

Question: What does the source list for `COc1c(Cl)cccc1Nc1c(-c2ccncc2OC[C@H]2CCO2)[nH]c2c1C(=O)NCC2` [Example 3, 3-(3-chloro-2-methoxyanilino)-2-(3-{[(2R)-oxetan-2-yl]methoxy}pyridin-4-yl)-1,5,6,7-tetrahydro-4H-pyrrolo[3,2-c]pyridin-4-one]?
Answer: IC50 [1]: 136 nM; IC50 [2, 4]: 4510 nM

Question: Which results are given for `COc1c(F)cccc1Nc1c(-c2ccncc2OC[C@H]2CCO2)[nH]c2c1C(=O)NCC2` [Example 6, 3-(3-fluoro-2-methoxyanilino)-2-(3-{[(2R)-oxetan-2-yl]methoxy}pyridin-4-yl)-1,5,6,7-tetrahydro-4H-pyrrolo[3,2-c]pyridin-4-one]?
Answer: IC50 [1]: 276 nM; IC50 [2, 4]: > 13300 nM

Question: For `O=C1NCCc2[nH]c(-c3ccncc3OCC3CCO3)c(Nc3cccc4c3CCC4)c21` (stereo not drawn) [Example 36, 3-[(2,3-dihydro-1H-inden-4-yl)amino]-2-{3-[(oxetan-2-yl)methoxy]pyridin-4-yl}-1,5,6,7-tetrahydro-4H-pyrrolo[3,2-c]pyridin-4-one], which IC50 [1] is on record?
Answer: 377 nM

Question: And the IC50 [2, 4]?
Answer: > 20000 nM

Reference: patent US20240307362A1 (priority 2019, published 2024)
